The results in this text go back to patent US10722501B2 (BAYER AKTIENGESELLSCHAFT, priority 2016, dated 2020).

The assay addresses T1, recombinant full-length human prolyl endopeptidase (PREP) (Homo sapiens, UniProt P48147).
T1 construct: To recombinant full-length human prolyl endopeptidase (PREP, R&D-Systems, 4308-SE); purchased R&D-Systems 4308-SE
T1 sequence (P48147 1-710): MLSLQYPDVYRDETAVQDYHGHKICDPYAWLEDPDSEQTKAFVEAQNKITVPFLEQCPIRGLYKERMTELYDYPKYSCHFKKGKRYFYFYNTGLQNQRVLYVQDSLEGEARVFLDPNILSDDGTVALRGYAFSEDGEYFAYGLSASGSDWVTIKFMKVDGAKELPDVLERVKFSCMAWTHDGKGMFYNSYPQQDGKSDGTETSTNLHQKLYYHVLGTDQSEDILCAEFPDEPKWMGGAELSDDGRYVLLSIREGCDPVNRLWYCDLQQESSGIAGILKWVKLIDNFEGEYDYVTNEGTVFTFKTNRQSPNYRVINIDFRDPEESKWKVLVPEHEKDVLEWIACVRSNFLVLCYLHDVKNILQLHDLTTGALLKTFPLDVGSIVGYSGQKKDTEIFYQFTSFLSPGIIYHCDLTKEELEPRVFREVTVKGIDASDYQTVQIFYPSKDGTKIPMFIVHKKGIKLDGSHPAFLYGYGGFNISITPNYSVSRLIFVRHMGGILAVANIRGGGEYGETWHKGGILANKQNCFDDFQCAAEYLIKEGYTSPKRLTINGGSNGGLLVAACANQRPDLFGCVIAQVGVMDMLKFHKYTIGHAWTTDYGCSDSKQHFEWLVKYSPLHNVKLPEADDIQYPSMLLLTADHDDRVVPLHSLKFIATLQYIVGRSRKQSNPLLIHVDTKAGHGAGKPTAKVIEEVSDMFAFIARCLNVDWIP
The assay is described as follows: Biochemical human prolyl endopeptidase (PREP) assay with fluorescently labelled substrate. The note with it: substrate Z-Gly-Pro-AMC 50 μM, 32° C., 60 min; some as mean values from multiple independent determinations. In outline: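 Initial rates of fluorescence increase from 50 μM Z-Gly-Pro-AMC cleavage (ex 360/em 465 nm, 60 min, 32° C) give percent PREP activity versus no-compound control, and IC50 is interpolated. Enzyme used at 0.4 nM (final, example) in Tris pH 7.5 with EDTA, GSH, BSA and Brij-35; compounds span 1 nM to 30 μM.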
As for `O=C([C@@H]1CCCc2nn(Cc3nccc(C(F)(F)F)c3Cl)c(=O)n21)N1CC[C@H](O)C1` [Example 391, (5S)-2-{[3-Chloro-4-(trifluoromethyl)pyridin-2-yl]methyl}-5-{[(3S)-3-hydroxypyrrolidin-1-yl]carbonyl}-5,6,7,8-tetrahydro[1,2,4]triazolo[4,3-a]pyridin-3(2H)-one], the 50% inhibitory concentration (IC50) (as a rule, the concentration needed to halve the response being measured) was determined as 8.65 nM. In the case of `O=C([C@@H]1CCCc2nn(Cc3nccc(C(F)(F)F)c3Cl)c(=O)n21)N1CC[C@H](F)C1` [Example 392, (5S)-2-{[3-Chloro-4-(trifluoromethyl)pyridin-2-yl]methyl}-5-{[(3S)-3-fluoropyrrolidin-1-yl]carbonyl}-5,6,7,8-tetrahydro[1,2,4]triazolo[4,3-a]pyridin-3(2H)-one] it was 0.46 nM. In the case of `O=C([C@@H]1CCCc2nn(Cc3ncccc3Cl)c(=O)n21)N1CC[C@H](F)C1` [Example 393, (5S)-2-[(3-Chloropyridin-2-yl)methyl]-5-{[(3S)-3-fluoropyrrolidin-1-yl]carbonyl}-5,6,7,8-tetrahydro[1,2,4]triazolo[4,3-a]pyridin-3(2H)-one] it was 1.4 nM. Take `O=C([C@@H]1CCCc2nn(Cc3ncccc3Cl)c(=O)n21)N1CC(F)(F)C1` [Example 394, (5S)-2-[(3-Chloropyridin-2-yl)methyl]-5-[(3,3-difluoroazetidin-1-yl)carbonyl]-5,6,7,8-tetrahydro[1,2,4]triazolo[4,3-a]pyridin-3(2H)-one]: the IC50 was determined as 28 nM. In the case of `O=C([C@@H]1CCCc2nn(Cc3ncccc3Cl)c(=O)n21)N1C[C@@H](F)[C@@H](F)C1` [Example 395, (5S)-2-[(3-Chloropyridin-2-yl)methyl]-5-{[(3R,4S)-3,4-difluoropyrrolidin-1-yl]carbonyl}-5,6,7,8-tetrahydro[1,2,4]triazolo[4,3-a]pyridin-3(2H)-one] it was 1.6 nM. In the case of `O=C([C@@H]1CCCc2nn(Cc3ncccc3Cl)c(=O)n21)N1CC(F)C1` [Example 396, (5S)-2-[(3-Chloropyridin-2-yl)methyl]-5-[(3-fluoroazetidin-1-yl)carbonyl]-5,6,7,8-tetrahydro[1,2,4]triazolo[4,3-a]pyridin-3(2H)-one] it was 6 nM; in that of `O=C([C@@H]1CCCc2nn(Cc3ncc(Cl)cc3Cl)c(=O)n21)N1CC(F)(F)C1` [Example 397, (5S)-2-[(3,5-Dichloropyridin-2-yl)methyl]-5-[(3,3-difluoroazetidin-1-yl)carbonyl]-5,6,7,8-tetrahydro[1,2,4]triazolo[4,3-a]pyridin-3(2H)-one], 6.9 nM; in that of `O=C([C@@H]1CCCc2nn(Cc3ncc(Cl)cc3Cl)c(=O)n21)N1CC(F)C1` [Example 398, (5S)-2-[(3,5-Dichloropyridin-2-yl)methyl]-5-[(3-fluoroazetidin-1-yl)carbonyl]-5,6,7,8-tetrahydro[1,2,4]triazolo[4,3-a]pyridin-3(2H)-one], 1.19 nM.

For the compound `O=C([C@@H]1CCCc2nn(Cc3ncc(Cl)cc3Cl)c(=O)n21)N1CCC(F)(F)C1` [Example 399, (5S)-2-[(3,5-Dichloropyridin-2-yl)methyl]-5-[(3,3-difluoropyrrolidin-1-yl)carbonyl]-5,6,7,8-tetrahydro[1,2,4]triazolo[4,3-a]pyridin-3(2H)-one], the half-maximal inhibitory concentration (IC50) is 1.55 nM. Next, `O=C([C@@H]1CCCc2nn(Cc3ncc(Cl)cc3Cl)c(=O)n21)N1C[C@@H](F)[C@@H](F)C1` [Example 400, (5S)-2-[(3,5-Dichloropyridin-2-yl)methyl]-5-{[(3R,4S)-3,4-difluoropyrrolidin-1-yl]carbonyl}-5,6,7,8-tetrahydro[1,2,4]triazolo[4,3-a]pyridin-3(2H)-one]: 0.455 nM; `O=C([C@@H]1CCCc2nn(Cc3ncc(C(F)(F)F)cc3Cl)c(=O)n21)N1CC[C@@H](F)C1` [Example 401, (5S)-2-{[3-Chloro-5-(trifluoromethyl)pyridin-2-yl]methyl}-5-{[(3R)-3-fluoropyrrolidin-1-yl]carbonyl}-5,6,7,8-tetrahydro[1,2,4]triazolo[4,3-a]pyridin-3(2H)-one]: 3.4 nM. In the case of `O=C([C@@H]1CCCc2nn(Cc3ncc(C(F)(F)F)cc3Cl)c(=O)n21)N1CC(F)C1` [Example 402, (5S)-2-{[3-Chloro-5-(trifluoromethyl)pyridin-2-yl]methyl}-5-[(3-fluoroazetidin-1-yl)carbonyl]-5,6,7,8-tetrahydro[1,2,4]triazolo[4,3-a]pyridin-3(2H)-one] it was 2.7 nM; in that of `O=C([C@@H]1CCCc2nn(Cc3ncc(C(F)(F)F)cc3Cl)c(=O)n21)N1CCC(F)(F)C1` [Example 404, (5S)-2-{[3-Chloro-5-(trifluoromethyl)pyridin-2-yl]methyl}-5-[(3,3-difluoropyrrolidin-1-yl)carbonyl]-5,6,7,8-tetrahydro[1,2,4]triazolo[4,3-a]pyridin-3(2H)-one], 2.33 nM. In the case of `O=C([C@@H]1CCCc2nn(Cc3ncc(C(F)(F)F)cc3Cl)c(=O)n21)N1CC[C@H](F)C1` [Example 405, (5S)-2-{[3-Chloro-5-(trifluoromethyl)pyridin-2-yl]methyl}-5-{[(3S)-3-fluoropyrrolidin-1-yl]carbonyl}-5,6,7,8-tetrahydro[1,2,4]triazolo[4,3-a]pyridin-3(2H)-one] it was 0.225 nM. For `O=C([C@@H]1CCCc2nn(Cc3ncc(Cl)cc3F)c(=O)n21)N1CCC(F)(F)C1` [Example 406, (5S)-2-[(5-Chloro-3-fluoropyridin-2-yl)methyl]-5-[(3,3-difluoropyrrolidin-1-yl)carbonyl]-5,6,7,8-tetrahydro[1,2,4]triazolo[4,3-a]pyridin-3(2H)-one], the half-maximal inhibitory concentration (IC50) amounted to 3.6 nM. Next, `O=C([C@@H]1CCCc2nn(Cc3ncc(Cl)cc3F)c(=O)n21)N1CC(F)C1` [Example 407, (5S)-2-[(5-Chloro-3-fluoropyridin-2-yl)methyl]-5-[(3-fluoroazetidin-1-yl)carbonyl]-5,6,7,8-tetrahydro[1,2,4]triazolo[4,3-a]pyridin-3(2H)-one]: 1.35 nM. Next, `O=C([C@@H]1CCCc2nn(Cc3ncc(Cl)cc3F)c(=O)n21)N1C[C@@H](F)[C@@H](F)C1` [Example 408, (5S)-2-[(5-Chloro-3-fluoropyridin-2-yl)methyl]-5-{[(3R,4S)-3,4-difluoropyrrolidin-1-yl]carbonyl}-5,6,7,8-tetrahydro[1,2,4]triazolo[4,3-a]pyridin-3(2H)-one]: 0.46 nM; `O=C([C@@H]1CCCc2nn(Cc3ncc(Cl)cc3F)c(=O)n21)N1CC(F)(F)C1` [Example 409, (5S)-2-[(5-Chloro-3-fluoropyridin-2-yl)methyl]-5-[(3,3-difluoroazetidin-1-yl)carbonyl]-5,6,7,8-tetrahydro[1,2,4]triazolo[4,3-a]pyridin-3(2H)-one]: 14 nM. Turning to `O=C([C@@H]1CCCc2nn(Cc3ncc(F)cc3F)c(=O)n21)N1CC(F)C1` [Example 410, (5S)-2-[(3,5-Difluoropyridin-2-yl)methyl]-5-[(3-fluoroazetidin-1-yl)carbonyl]-5,6,7,8-tetrahydro[1,2,4]triazolo[4,3-a]pyridin-3(2H)-one], the IC50 amounted to 7.7 nM. Regarding `O=C([C@@H]1CCCc2nn(Cc3ncc(F)cc3F)c(=O)n21)N1C[C@@H](F)[C@@H](F)C1` [Example 411, (5S)-2-[(3,5-Difluoropyridin-2-yl)methyl]-5-{[(3R,4S)-3,4-difluoropyrrolidin-1-yl]carbonyl}-5,6,7,8-tetrahydro[1,2,4]triazolo[4,3-a]pyridin-3(2H)-one], the IC50 was 2.5 nM.
